Data: ChEMBL document CHEMBL3046287, “Azoxystrobin resistance of French Mycosphaerella graminicola strains assessed by four in vitro bioassays and by screening of G143A substitution” (Crop Prot, 2010)
Values after ≈ are worked out from the molar mass of the structure shown.

Legend:
Assay type in all cases: functional, organism-based
[1] = tested on: Zymoseptoria tritici; experiment: Antifungal activity against azoxystrobin-resistant Zymoseptoria tritici T0414 carrying cytochrome-b A143 allele assessed as inhibition of spore germination after 2 days at 18 degC by spotting on PDA medium assay; conditions: T0414, 48 h
[2] = tested on: Zymoseptoria tritici; experiment: Antifungal activity against azoxystrobin-sensitive Zymoseptoria tritici IPO94269 carrying cytochrome-b G143 allele assessed as inhibition of spore germination after 2 days at 18 degC by spotting on PDA medium assay; conditions: IPO94269, 48 h
[3] = tested on: Zymoseptoria tritici; experiment: Antifungal activity against azoxystrobin-resistant Zymoseptoria tritici T0414 carrying cytochrome-b A143 allele assessed as fungal colony perpendicular diameter changes after 10 days at 18 degC by spotting on PDA medium assay; conditions: T0414, 240 h
[4] = tested on: Zymoseptoria tritici; experiment: Antifungal activity against azoxystrobin-sensitive Zymoseptoria tritici T0403 carrying cytochrome-b G143 allele assessed as fungal colony perpendicular diameter changes after 10 days at 18 degC by spotting on PDA medium assay; conditions: T0403, 240 h
[5] = tested on: Zymoseptoria tritici; experiment: Antifungal activity against azoxystrobin-sensitive Zymoseptoria tritici T0473 carrying cytochrome-b G143 allele assessed as inhibition of spore germination after 2 days at 18 degC by spotting on PDA medium assay; conditions: T0473, 48 h
[6] = tested on: Zymoseptoria tritici; experiment: Antifungal activity against azoxystrobin-resistant Zymoseptoria tritici T0251 carrying cytochrome-b A143 allele assessed as fungal colony perpendicular diameter changes after 10 days at 18 degC by spotting on PDA medium assay; conditions: T0251, 240 h
[7] = tested on: Zymoseptoria tritici; experiment: Antifungal activity against azoxystrobin-sensitive Zymoseptoria tritici T0473 carrying cytochrome-b G143 allele assessed as fungal colony perpendicular diameter changes after 10 days at 18 degC by spotting on PDA medium assay; conditions: T0473, 240 h
[8] = tested on: Zymoseptoria tritici; experiment: Antifungal activity against azoxystrobin-resistant Zymoseptoria tritici T055 carrying cytochrome-b A143 allele assessed as fungal growth inhibition after 6 days at 20 degC by microplate without alamar blue assay; conditions: T055, 144 h
[9] = tested on: Zymoseptoria tritici; experiment: Antifungal activity against azoxystrobin-resistant Zymoseptoria tritici T0254 carrying cytochrome-b A143 allele assessed as inhibition of spore germination after 2 days at 18 degC by spotting on PDA medium assay; conditions: T0254, 48 h
[10] = tested on: Zymoseptoria tritici; experiment: Antifungal activity against azoxystrobin-resistant Zymoseptoria tritici T0251 carrying cytochrome-b A143 allele assessed as inhibition of spore germination after 2 days at 18 degC by spotting on PDA medium assay; conditions: T0251, 48 h
[11] = tested on: Zymoseptoria tritici; experiment: Antifungal activity against azoxystrobin-sensitive Zymoseptoria tritici T0460 carrying cytochrome-b G143 allele assessed as fungal growth inhibition after 6 days at 20 degC by microplate without alamar blue assay; conditions: T0460, 144 h
[12] = tested on: Zymoseptoria tritici; experiment: Antifungal activity against azoxystrobin-sensitive Zymoseptoria tritici T0470 carrying cytochrome-b G143 allele assessed as inhibition of spore germination after 2 days at 18 degC by spotting on PDA medium assay; conditions: T0470, 48 h
[13] = tested on: Zymoseptoria tritici; experiment: Antifungal activity against azoxystrobin-sensitive Zymoseptoria tritici T0464 carrying cytochrome-b G143 allele assessed as fungal growth inhibition after 6 days at 20 degC by microplate without alamar blue assay; conditions: T0464, 144 h
[14] = tested on: Zymoseptoria tritici; experiment: Antifungal activity against azoxystrobin-resistant Zymoseptoria tritici T0345 carrying cytochrome-b A143 allele assessed as inhibition of spore germination after 2 days at 18 degC by spotting on PDA medium assay; conditions: T0345, 48 h
[15] = tested on: Zymoseptoria tritici; experiment: Antifungal activity against azoxystrobin-sensitive Zymoseptoria tritici T0214 carrying cytochrome-b G143 allele assessed as fungal growth inhibition after 6 days at 20 degC by microplate without alamar blue assay; conditions: T0214, 144 h
[16] = tested on: Zymoseptoria tritici; experiment: Antifungal activity against azoxystrobin-sensitive Zymoseptoria tritici T0213 carrying cytochrome-b G143 allele assessed as inhibition of spore germination after 2 days at 18 degC by spotting on PDA medium assay; conditions: T0213, 48 h
[17] = tested on: Zymoseptoria tritici; experiment: Antifungal activity against azoxystrobin-sensitive Zymoseptoria tritici T0214 carrying cytochrome-b G143 allele assessed as fungal colony perpendicular diameter changes after 10 days at 18 degC by spotting on PDA medium assay; conditions: T0214, 240 h
[18] = tested on: Zymoseptoria tritici; experiment: Antifungal activity against azoxystrobin-sensitive Zymoseptoria tritici T0210 carrying cytochrome-b G143 allele assessed as fungal colony perpendicular diameter changes after 10 days at 18 degC by spotting on PDA medium assay; conditions: T0210, 240 h
[19] = tested on: Zymoseptoria tritici; experiment: Antifungal activity against azoxystrobin-sensitive Zymoseptoria tritici T0211 carrying cytochrome-b G143 allele assessed as fungal growth inhibition after 6 days at 20 degC by microplate without alamar blue assay; conditions: T0211, 144 h
[20] = tested on: Zymoseptoria tritici; experiment: Antifungal activity against azoxystrobin-sensitive Zymoseptoria tritici IPO323 carrying cytochrome-b G143 allele assessed as inhibition of spore germination after 2 days at 18 degC by spotting on PDA medium assay; conditions: IPO323, 48 h
[21] = tested on: Zymoseptoria tritici; experiment: Antifungal activity against azoxystrobin-resistant Zymoseptoria tritici T0242 carrying cytochrome-b A143 allele assessed as inhibition of spore germination after 2 days at 18 degC by spotting on PDA medium assay; conditions: T0242, 48 h
[22] = tested on: Zymoseptoria tritici; experiment: Antifungal activity against azoxystrobin-resistant Zymoseptoria tritici T0290 carrying cytochrome-b A143 allele assessed as inhibition of spore germination after 2 days at 18 degC by spotting on PDA medium assay; conditions: T0290, 48 h
[23] = tested on: Zymoseptoria tritici; experiment: Antifungal activity against azoxystrobin-sensitive Zymoseptoria tritici T0365 carrying cytochrome-b G143 allele assessed as fungal growth inhibition after 6 days at 20 degC by microplate without alamar blue assay; conditions: T0365, 144 h
[24] = tested on: Zymoseptoria tritici; experiment: Antifungal activity against azoxystrobin-sensitive Zymoseptoria tritici T0211 carrying cytochrome-b G143 allele assessed as inhibition of spore germination after 2 days at 18 degC by spotting on PDA medium assay; conditions: T0211, 48 h
[25] = tested on: Zymoseptoria tritici; experiment: Antifungal activity against azoxystrobin-sensitive Zymoseptoria tritici T0471 carrying cytochrome-b G143 allele assessed as fungal growth inhibition after 6 days at 20 degC by microplate without alamar blue assay; conditions: T0471, 144 h
[26] = tested on: Zymoseptoria tritici; experiment: Antifungal activity against azoxystrobin-sensitive Zymoseptoria tritici T0148 carrying cytochrome-b G143 allele assessed as fungal growth inhibition after 6 days at 20 degC by microplate without alamar blue assay; conditions: T0148, 144 h
[27] = tested on: Zymoseptoria tritici; experiment: Antifungal activity against azoxystrobin-sensitive Zymoseptoria tritici T0278 carrying cytochrome-b G143 allele assessed as fungal growth inhibition after 6 days at 20 degC by microplate without alamar blue assay; conditions: T0278, 144 h
[28] = tested on: Zymoseptoria tritici; experiment: Antifungal activity against azoxystrobin-resistant Zymoseptoria tritici T0290 carrying cytochrome-b A143 allele assessed as fungal growth inhibition after 6 days at 20 degC by microplate without alamar blue assay; conditions: T0290, 144 h
[29] = tested on: Zymoseptoria tritici; experiment: Antifungal activity against azoxystrobin-resistant Zymoseptoria tritici T0242 carrying cytochrome-b A143 allele assessed as fungal colony perpendicular diameter changes after 10 days at 18 degC by spotting on PDA medium assay; conditions: T0242, 240 h
[30] = tested on: Zymoseptoria tritici; experiment: Antifungal activity against azoxystrobin-sensitive Zymoseptoria tritici IPO323 carrying cytochrome-b G143 allele assessed as fungal growth inhibition after 6 days at 20 degC by microplate without alamar blue assay; conditions: IPO323, 144 h

Question: Which results are given for `CO/C=C(/C(=O)OC)c1ccccc1Oc1cc(Oc2ccccc2C#N)ncn1` [AZOXYSTROBIN]?
Answer: IC50 [1]: 16.2 µg/mL (≈ 40.3 µM); IC50 [2]: 0.06 µg/mL (≈ 0.149 µM); IC50 [3]: 11.8 µg/mL (≈ 29.3 µM); IC50 [4]: 0.12 µg/mL (≈ 0.297 µM); IC50 [5]: 0.05 µg/mL (≈ 0.124 µM); IC50 [6]: 15.3 µg/mL (≈ 38 µM); IC50 [7]: 0.13 µg/mL (≈ 0.322 µM); IC50 [8]: > 100 µg/mL; IC50 [9]: 7.17 µg/mL (≈ 17.8 µM); IC50 [10]: 34.1 µg/mL (≈ 84.7 µM); IC50 [11]: 0.03 µg/mL (≈ 0.0744 µM); IC50 [12]: 0.02 µg/mL (≈ 0.0496 µM); IC50 [13]: < 0.01 µg/mL; IC50 [14]: 12.6 µg/mL (≈ 31.3 µM); IC50 [15]: 0.02 µg/mL (≈ 0.0496 µM); IC50 [16]: 0.16 µg/mL (≈ 0.397 µM); IC50 [17]: 0.09 µg/mL (≈ 0.223 µM); IC50 [18]: 0.06 µg/mL (≈ 0.149 µM); IC50 [19]: 0.02 µg/mL (≈ 0.0496 µM); IC50 [20]: 0.07 µg/mL (≈ 0.174 µM); IC50 [21]: 18.4 µg/mL (≈ 45.7 µM); IC50 [22]: 20.1 µg/mL (≈ 49.8 µM); IC50 [23]: 0.16 µg/mL (≈ 0.397 µM); IC50 [24]: 0.08 µg/mL (≈ 0.198 µM); IC50 [25]: 0.05 µg/mL (≈ 0.124 µM); IC50 [26]: 0.21 µg/mL (≈ 0.521 µM); IC50 [27]: 0.04 µg/mL (≈ 0.0992 µM); IC50 [28]: > 100 µg/mL; IC50 [29]: 12 µg/mL (≈ 29.7 µM); IC50 [30]: 0.01 µg/mL (≈ 0.0248 µM)
